Assay results taken from PMC6934184, “Selective DNA-PKcs inhibition extends the therapeutic index of localized radiotherapy and chemotherapy” (The Journal of Clinical Investigation, 2019).

Target: T1, MAP4K4 (HGK) (Homo sapiens, UniProt O95819)
T1 construct: purchased Thermo Fisher Scientific (Life Technologies) SelectScreen
Test: SelectScreen Z'LYTE
Assay type: biochemical
Method in brief: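 Percent values come from Thermo SelectScreen profiling of NU5455, combining activity and binding assays. CSF1R was run in Z'LYTE format at Km app ATP, and CAMK1 in Adapta format with ATP listed at 10.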

T1 sequence (O95819 whole entry): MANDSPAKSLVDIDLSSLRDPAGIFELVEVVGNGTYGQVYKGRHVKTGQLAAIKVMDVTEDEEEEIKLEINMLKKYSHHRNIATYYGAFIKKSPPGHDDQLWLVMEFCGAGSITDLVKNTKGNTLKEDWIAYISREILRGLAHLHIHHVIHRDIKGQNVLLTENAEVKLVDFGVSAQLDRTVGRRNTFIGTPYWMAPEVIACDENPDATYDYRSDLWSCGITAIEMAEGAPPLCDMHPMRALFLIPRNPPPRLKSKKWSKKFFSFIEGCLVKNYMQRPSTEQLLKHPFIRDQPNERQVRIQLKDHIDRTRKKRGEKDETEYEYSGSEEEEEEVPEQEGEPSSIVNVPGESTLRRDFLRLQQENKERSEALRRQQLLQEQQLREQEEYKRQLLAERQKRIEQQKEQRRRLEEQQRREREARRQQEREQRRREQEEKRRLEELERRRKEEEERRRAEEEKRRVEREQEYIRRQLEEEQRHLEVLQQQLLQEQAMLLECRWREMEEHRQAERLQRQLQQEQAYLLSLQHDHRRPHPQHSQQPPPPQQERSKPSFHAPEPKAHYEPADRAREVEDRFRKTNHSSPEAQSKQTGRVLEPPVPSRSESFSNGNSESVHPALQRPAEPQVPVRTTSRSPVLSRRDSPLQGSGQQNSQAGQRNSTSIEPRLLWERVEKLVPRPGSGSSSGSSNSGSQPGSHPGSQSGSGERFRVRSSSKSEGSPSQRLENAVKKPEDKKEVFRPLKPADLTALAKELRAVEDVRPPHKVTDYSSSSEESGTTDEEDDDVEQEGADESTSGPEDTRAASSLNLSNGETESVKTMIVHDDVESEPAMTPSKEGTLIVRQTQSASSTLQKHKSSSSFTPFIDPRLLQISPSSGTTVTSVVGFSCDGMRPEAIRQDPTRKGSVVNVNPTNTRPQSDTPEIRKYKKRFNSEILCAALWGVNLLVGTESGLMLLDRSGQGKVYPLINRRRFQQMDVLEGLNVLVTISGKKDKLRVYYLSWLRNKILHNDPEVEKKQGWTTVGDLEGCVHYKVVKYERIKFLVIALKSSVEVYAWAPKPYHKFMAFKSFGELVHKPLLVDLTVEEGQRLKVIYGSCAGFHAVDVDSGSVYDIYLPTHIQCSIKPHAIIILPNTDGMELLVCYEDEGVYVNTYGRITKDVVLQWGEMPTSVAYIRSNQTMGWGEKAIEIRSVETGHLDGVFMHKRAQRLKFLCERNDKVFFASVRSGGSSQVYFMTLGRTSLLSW

**Q.** CN(C(=O)CN1CCOCC1)c1ccc2sc3c(-c4cccc5c(=O)cc(N6CC7CCC(C6)O7)oc45)cccc3c2c1 [NU5455] was tested. Which inhibition at 1 µM did it give?
**A.** The inhibition at 1 µM was -5.6%.
